The test has as its target T1, Vitamin D3 receptor (Rattus norvegicus) (UniProt P13053).
T1 sequence (whole entry): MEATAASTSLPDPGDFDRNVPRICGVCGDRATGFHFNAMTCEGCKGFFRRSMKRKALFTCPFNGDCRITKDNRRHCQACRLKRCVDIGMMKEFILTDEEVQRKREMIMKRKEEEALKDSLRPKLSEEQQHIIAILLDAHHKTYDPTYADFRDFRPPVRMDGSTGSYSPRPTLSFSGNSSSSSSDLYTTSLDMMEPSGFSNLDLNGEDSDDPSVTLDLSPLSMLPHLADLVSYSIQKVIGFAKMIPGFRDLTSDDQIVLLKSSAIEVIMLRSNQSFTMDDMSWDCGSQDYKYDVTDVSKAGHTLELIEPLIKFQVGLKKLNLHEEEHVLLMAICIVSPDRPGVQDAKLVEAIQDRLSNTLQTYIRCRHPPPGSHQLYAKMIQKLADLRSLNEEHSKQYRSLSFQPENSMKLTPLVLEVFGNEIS
As to the kind of experiment: Vitamin D receptor mediated transcriptional activity in rat osteosarcoma ROS 17/2.8 cells.

The structures appear in SMILES notation.

Among the data in ChEMBL document CHEMBL1131627, “Noncalcemic, antiproliferative, transcriptionally active, 24-fluorinated hybrid analogues of the hormone 1alpha, 25-dihydroxyvitamin D3. Synthesis and preliminary biological evaluation” (J Med Chem, 1998) are ED50 values, retold here.

Take `C=C1/C(=C\C=C2/CCC[C@]3(C)C([C@H](C)CCC(F)(F)C(O)(CC)CC)=CC[C@@H]23)C[C@H](O)C[C@H]1CO`: the ED50 came to 0.05 nM.
As for `C=C1/C(=C\C=C2/CCC[C@]3(C)C([C@H](C)CCC(F)(F)C(C)(C)O)=CC[C@@H]23)C[C@H](O)C[C@H]1CO`, the figure is 0.2 nM.
The result for `C=C1/C(=C\C=C2/CCC[C@]3(C)[C@@H]([C@H](C)CCCC(C)(C)O)CC[C@@H]23)C[C@@H](O)C[C@@H]1O` reads 0.3 nM.
